US20260138970A1, “MODULATORS OF THE CALCIUM SIGNALING CASCADE” (FONDAZIONE TELETHON ETS, priority 2022, published 2026)

Experiments:
FRT cells = test: Fluo-4 Ca2+ mobilization assay in parental (null) FRT cells; format: cell-based, rat; conditions: for direct Ca2+ mobilization in the absence of UTP (Fluo-4): acute addition, Eact 5 μM, FIG. 2B; for direct Ca2+ mobilization in the absence of UTP (Fluo-4) / potentiation of UTP-dependent Ca2+ increase (Fluo-4): compounds 10 μM; for potentiation of UTP-dependent Ca2+ increase (Fluo-4): FIG. 2A
Procedure: Experiments were performed using the microplate reader described for the HS-YFP assay. FRT and HEK293 cells were cultured until confluence in 96-well microplates (3603, Corning). Cells were washed 2 times with PBS (150 μl/wash) and then loaded for 1 h at 37° C. with 5 μM Fluo-4/AM (Thermo Fisher Scientific; catalog number: F23917) in PBS containing 10 mM glucose, 0.5 mM sulfinpyrazone, and 1% fetal bovine serum. […] Each well was assayed individually. Fluo-4 fluorescence (500 nm excitation, 535 nm emission) was detected every 200 ms for 16-40 s. Two seconds after the start of fluorescence recording, the reader automatically injected 165 μl of a modified PBS containing 136 mM KCl instead of NaCl. This solution also contained 10 mM glucose, 0.5 mM sulfinpyrazone, and UTP or SLIGR-NH2 (CAS #171436-38-7) at a final concentration that depended on the specific cell type. For UTP we used: 0.25 μM for FRT; 1 μM for HEKR2; 5 μM for HEK3XKO, HEKR1, and HEKR3. For SLIGR-NH2 we used: 10 μM for HEKR1; 4 μM for HEKR2. These concentrations were chosen to elicit ˜20% of maximal effect based on UTP and SLIGR-NH2 dose-response relationships. The lower agonist concentrations used for HEKR2 cells, compared to HEKR1 cells, are consistent with the higher affinity of ITPR2 for IP3 (16). The Fluo-4 fluorescence increase was quantified using a procedure compiled in Microsoft Excel after background subtraction and normalization for the initial value measured before UTP addition.
In a further experimental setting, experiments were performed using as above the FLUOstar Omega (BMG Labtech, Offenburg, Germany) microplate reader equipped with syringe pumps and optical excitation/emission filters optimized for yellow fluorescent protein (YFP) fluorescence (ET500/20× and ET535/30m, respectively; Chroma Technology Corporation). FRT and Chem-1 cells were cultured until confluence in 96-well microplates (cc3603, Corning). Cells were washed 2 times with PBS (150 μl/wash) and then loaded for 1 h at 37° C. with 5 μM Fluo-4/AM (Thermo Fisher Scientific; catalog number: F23917) in PBS containing 10 mM glucose, 0.5 mM sulfinpyrazone, and 1% fetal bovine serum. […] Each well was assayed individually. Fluo-4 fluorescence (500 nm excitation, 535 nm emission) was detected every 200 ms for 16-40 s. Two seconds after the start of fluorescence recording, the reader automatically injected 165 μl of a modified PBS containing 136 mM KCl instead of NaCl. This solution also contained, in addition to 10 mM glucose and 0.5 mM sulfinpyrazone, the following agonists: UTP (U6625, Merck) or CCK8s (23371, Cayman Chemical). The Fluo-4 fluorescence increase was quantified using a procedure compiled in Microsoft Excel after background subtraction and normalization for the initial value measured before UTP or CCK8s addition.

ITPR2 = molecular target: T1, ITPR2 (Homo sapiens, UniProt Q14571); test: Fluo-4 Ca2+ assay, UTP, HEK293 cells with selective expression of ITPR2 (HEKR2); format: cell-based; conditions: compounds 10 μM; UTP 1 μM; FIG. 2C
T1 construct: host or cells: HEKR2 (HEK293)
Procedure: (§1) HEK293 cells totally devoid of ITPR expression (HEK3XKO) or with selective expression of ITPR1 (HEKR1), ITPR2 (HEKR2), or ITPR3 (HEKR3), obtained by selective gene ablation, were purchased from Kerafast (catalog number: EURO30, EURO31, EURO32, EURO33) and cultured in a mixture of Dulbecco's Modified Eagle Medium (DMEM, high glucose version) and Ham's F12 (1:1) and supplemented with 10% fetal bovine serum, 2 mM L-glutamine, 100 U/ml penicillin and 100 μg/ml streptomycin.
(§2) Experiments were performed using the microplate reader described for the HS-YFP assay. FRT and HEK293 cells were cultured until confluence in 96-well microplates (3603, Corning). Cells were washed 2 times with PBS (150 μl/wash) and then loaded for 1 h at 37° C. with 5 μM Fluo-4/AM (Thermo Fisher Scientific; catalog number: F23917) in PBS containing 10 mM glucose, 0.5 mM sulfinpyrazone, and 1% fetal bovine serum. After loading, cells were washed 2 times with PBS-glucose-sulfinpyrazone (150 μl/wash) and incubated for 20 min at 37° C. with 60 μl of PBS plus 10 mM glucose and 0.5 mM sulfinpyrazone containing compounds of interest at 10 μM final concentration or vehicle. Each well was assayed individually. Fluo-4 fluorescence (500 nm excitation, 535 nm emission) was detected every 200 ms for 16-40 s. Two seconds after the start of fluorescence recording, the reader automatically injected 165 μl of a modified PBS containing 136 mM KCl instead of NaCl. This solution also contained 10 mM glucose, 0.5 mM sulfinpyrazone, and UTP or SLIGR-NH2 (CAS #171436-38-7) at a final concentration that depended on the specific cell type. For UTP we used: 0.25 μM for FRT; 1 μM for HEKR2; 5 μM for HEK3XKO, HEKR1, and HEKR3. For SLIGR-NH2 we used: 10 μM for HEKR1; 4 μM for HEKR2. These concentrations were chosen to elicit ˜20% of maximal effect based on UTP and SLIGR-NH2 dose-response relationships. […] The Fluo-4 fluorescence increase was quantified using a procedure compiled in Microsoft Excel after background subtraction and normalization for the initial value measured before UTP addition.

ITPR3 = molecular target: T2, ITPR3 (Homo sapiens, UniProt Q14573); test: Fluo-4 Ca2+ assay, UTP, HEK293 cells with selective expression of ITPR3 (HEKR3); format: cell-based; conditions: compounds 10 μM; UTP 5 μM; FIG. 2C
T2 construct: host or cells: HEKR3 (HEK293)
Procedure: as §1, §2

T267M ITPR1 = molecular target: T3, T267M ITPR1 (Homo sapiens, UniProt Q14643, T267M); test: Fluo-4 Ca2+ assay, UTP, HEK293 cells with inducible T267M ITPR1; format: cell-based; conditions: UTP 5 μM; compound 10 μM; tetracycline-induced; FIG. 6B-C
T3 construct: expressed in transfected cells
Procedure: HEK293 cells stably transfected with tetracycline-inducible expression of wild type or mutant (R269W or T267M) ITPR1, kindly provided by Prof. S. R. Wayne Chen (University of Calgary; ref. 14), were cultured in a mixture of Dulbecco's Modified Eagle Medium (DMEM, high glucose version) and Ham's F12 (1:1) and supplemented with 10% fetal bovine serum, 2 mM L-glutamine, 100 U/ml penicillin and 100 μg/ml streptomycin. Cells were selected with 0.5 mg/ml hygromycin B and induced with 1 μg/ml tetracycline.
as §2

T2 sequence (Q14573 whole entry): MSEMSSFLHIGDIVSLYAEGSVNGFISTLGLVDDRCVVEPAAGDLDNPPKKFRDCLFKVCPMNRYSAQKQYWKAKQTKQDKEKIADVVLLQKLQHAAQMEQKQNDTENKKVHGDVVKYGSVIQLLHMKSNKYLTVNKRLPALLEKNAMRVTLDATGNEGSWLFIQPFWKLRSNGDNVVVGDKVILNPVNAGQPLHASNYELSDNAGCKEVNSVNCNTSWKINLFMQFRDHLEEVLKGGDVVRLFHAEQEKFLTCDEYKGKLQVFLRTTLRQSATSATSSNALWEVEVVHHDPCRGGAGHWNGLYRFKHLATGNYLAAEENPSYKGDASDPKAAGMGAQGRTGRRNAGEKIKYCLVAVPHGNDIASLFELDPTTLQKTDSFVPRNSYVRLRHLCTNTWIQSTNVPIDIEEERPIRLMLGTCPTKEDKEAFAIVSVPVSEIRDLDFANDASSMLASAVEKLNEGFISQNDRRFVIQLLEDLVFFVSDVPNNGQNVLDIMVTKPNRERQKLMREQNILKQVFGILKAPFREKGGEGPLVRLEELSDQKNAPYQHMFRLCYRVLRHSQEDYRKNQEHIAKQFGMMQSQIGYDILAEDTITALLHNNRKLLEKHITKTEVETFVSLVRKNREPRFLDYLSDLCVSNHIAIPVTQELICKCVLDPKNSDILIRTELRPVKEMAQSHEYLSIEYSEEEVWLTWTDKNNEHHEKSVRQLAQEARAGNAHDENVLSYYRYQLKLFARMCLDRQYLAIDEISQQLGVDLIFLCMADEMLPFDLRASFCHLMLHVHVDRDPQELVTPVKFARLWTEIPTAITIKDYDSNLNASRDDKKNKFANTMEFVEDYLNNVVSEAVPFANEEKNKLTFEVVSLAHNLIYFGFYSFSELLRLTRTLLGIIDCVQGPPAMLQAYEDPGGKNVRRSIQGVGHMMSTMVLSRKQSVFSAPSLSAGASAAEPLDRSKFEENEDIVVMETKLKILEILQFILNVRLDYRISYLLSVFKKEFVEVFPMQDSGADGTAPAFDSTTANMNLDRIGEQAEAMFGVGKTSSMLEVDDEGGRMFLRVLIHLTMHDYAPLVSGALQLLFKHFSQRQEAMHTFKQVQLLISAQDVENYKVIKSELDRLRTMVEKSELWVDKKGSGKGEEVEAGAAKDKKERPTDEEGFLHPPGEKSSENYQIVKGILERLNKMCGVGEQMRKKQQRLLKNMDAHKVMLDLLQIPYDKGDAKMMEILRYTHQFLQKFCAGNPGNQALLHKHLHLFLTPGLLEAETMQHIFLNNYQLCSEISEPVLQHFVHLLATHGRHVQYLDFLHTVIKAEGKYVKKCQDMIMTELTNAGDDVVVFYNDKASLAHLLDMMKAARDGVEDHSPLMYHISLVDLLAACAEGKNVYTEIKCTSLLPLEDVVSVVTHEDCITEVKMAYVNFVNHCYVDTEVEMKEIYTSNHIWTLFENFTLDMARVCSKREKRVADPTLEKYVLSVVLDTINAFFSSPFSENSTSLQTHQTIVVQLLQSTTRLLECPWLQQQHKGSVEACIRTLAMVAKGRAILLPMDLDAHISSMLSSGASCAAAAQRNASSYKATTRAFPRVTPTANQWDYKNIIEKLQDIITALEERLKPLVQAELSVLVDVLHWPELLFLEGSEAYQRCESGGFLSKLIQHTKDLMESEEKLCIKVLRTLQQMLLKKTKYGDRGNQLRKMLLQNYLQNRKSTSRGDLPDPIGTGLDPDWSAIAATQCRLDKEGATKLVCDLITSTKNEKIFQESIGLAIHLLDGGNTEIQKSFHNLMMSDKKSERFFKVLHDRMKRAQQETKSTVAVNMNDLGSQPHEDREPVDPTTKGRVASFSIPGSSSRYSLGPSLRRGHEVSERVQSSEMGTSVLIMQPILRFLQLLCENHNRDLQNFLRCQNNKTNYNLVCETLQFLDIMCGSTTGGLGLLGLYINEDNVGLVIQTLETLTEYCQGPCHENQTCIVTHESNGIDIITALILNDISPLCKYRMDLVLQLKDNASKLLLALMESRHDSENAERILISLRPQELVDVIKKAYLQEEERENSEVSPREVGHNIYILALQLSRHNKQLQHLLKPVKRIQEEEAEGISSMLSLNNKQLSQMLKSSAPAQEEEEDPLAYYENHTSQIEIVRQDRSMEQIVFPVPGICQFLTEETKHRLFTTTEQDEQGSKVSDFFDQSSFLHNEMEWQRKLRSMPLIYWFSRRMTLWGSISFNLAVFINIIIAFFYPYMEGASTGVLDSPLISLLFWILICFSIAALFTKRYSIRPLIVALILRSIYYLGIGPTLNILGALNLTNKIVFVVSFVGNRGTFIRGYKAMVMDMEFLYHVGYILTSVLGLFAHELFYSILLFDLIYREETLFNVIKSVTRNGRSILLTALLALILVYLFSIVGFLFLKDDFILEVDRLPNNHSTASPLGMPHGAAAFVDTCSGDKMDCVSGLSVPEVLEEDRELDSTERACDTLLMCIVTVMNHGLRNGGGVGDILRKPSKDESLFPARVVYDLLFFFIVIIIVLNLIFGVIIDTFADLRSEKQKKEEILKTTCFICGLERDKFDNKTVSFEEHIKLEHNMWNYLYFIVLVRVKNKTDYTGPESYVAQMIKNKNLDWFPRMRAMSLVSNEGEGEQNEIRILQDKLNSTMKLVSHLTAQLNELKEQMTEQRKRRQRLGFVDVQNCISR

SMILES	direct Ca2+ mobilization in the absence of UTP (Fluo-4) (FRT cells)	potentiation of UTP-dependent Ca2+ increase (Fluo-4) (FRT cells; UTP 0.25 μM)	potentiation of UTP-elicited Ca2+ increase, ITPR2-only cells (ITPR2)	potentiation of UTP-elicited Ca2+ increase, ITPR3-only cells (ITPR3)	potentiation of Ca2+ mobilization elicited by UTP, T267M mutant (T267M ITPR1)	potentiation of the Ca2+ increase elicited by UTP, multiple concentrations (FRT cells; UTP 0.25 μM, compounds 1-80 μM, vs vehicle (DMSO), FIG. 8)
CCc1cc(-c2cc(NCCCOc3ccccc3C)nc(N)n2)n(C)n1 [ARN7149, 6-(3-Ethyl-1-methyl-1H-pyrazol-5-yl)-N^4-(3-(o-tolyloxy)propyl)pyrimidine-2,4-diamine]	No effect	able to potentiate	always effective	always effective	also effective although less than ARN11391	
CCn1nc2c(c1C(=O)Nc1ccccc1OCC1CCCCO1)CCCC2 (stereo not shown) [ARN11391, 2-Ethyl-N-[2-(tetrahydropyran-2-ylmethoxy)phenyl]-4,5,6,7-tetrahydroindazole-3-carboxamide]	No effect	able to potentiate	only effective in cells with ITPR1	only effective in cells with ITPR1	marked potentiation	dose-dependent potentiation
OCc1ccccc1CN(Cc1ccnc(N2CCCC2)n1)c1ccc(F)cc1 [ARN4550, [2-[[4-Fluoro-N-[(2-pyrrolidin-1-ylpyrimidin-4-yl)methyl]anilino]methyl]phenyl]methanol]	No effect	able to potentiate	always effective	always effective	also effective although less than ARN11391	
